US5004758A, “Water soluble camptothecin analogs useful for inhibiting the growth of animal tumor cells” (priority 1988, dated 1991)
Where a name gives a salt, the structure may show the parent alone. Read-outs that look alike come from different tables or passages of the source.

Tests used:
[1] = tested on: ip M5076 sarcoma; experiment: ip-implanted M5076 sarcoma in mice; type: in vivo, mouse
Source text: (§1) Tumors used in these studies--P388 leukemia and its doxorbicin--and mitoxanrone-resistant sublines, L1210 leukemia, B16 melanoma, B16 melanoma/F10 subline, M5076 sarcoma and colon carcinoma 26--are maintained by serial transplantation in syngeneic strains of mice. For the leukemias, these tumors are maintained in DBA/2 mice. The M5076 sarcoma, the B16 melanoma and its F10 subline are maintained in C57B1/6 mice and the colon sarcinoma 26 is maintained in BALB/c mice. The leukemias and the M5076 sarcoma are serially transplanted i.p. as ascites cell suspensions while the B16 melanoma lines and the colon carcinoma 26 are serially transplanted as s.c. solid tumors.
(§2) For therapeutic trials, tumors are aseptically removed from donor mice and prepared as suspensions for implantation ip into test animals. The test animals for the colon carcinoma 26 are female BALB/c mice (20-25 gm). The test animals for the other tumor models are syngeneic female F1 hybrid B6D2F1 mice (C57B1/6 x DBA/2). The inoculum level varies with the type of tumor: P388 leukemia is inoculated at 10^6 cells per mouse, L1210 leukemia at 10^5 or 10^6 cells per mouse, M5076 sarcoma at 5×10^6 cells per mouse. For implantation of the B16 melanoma lines and the colon carcinoma 26, s.c. tumors from donor mice are minced and homogenized in loose fitting teflon glass homogenizer to give a tumor brei. The inoculum levels are 0.5 ml of a 10 percent (w:v) brei of the B16 melanoma lines and 0.5 ml of a 5 percent (w:v) brei of colon carcinoma 26. After tumor inoculation, mice randomized to treatment groups comprised of 6-8 mice each. In each experiment, there are three groups of untreated control mice. Drugs are dissolved or suspended in appropriate aqueous vehicles and given by a variety of routes and schedules of administration over a range of dose levels. Animals are housed in shoebox cages and are monitored daily for mortality for 30 (L1210), 45 (P388) or 60 (B16, M5076, colon 26) days.

[2] = tested on: sc colon adenocarcinoma 38
Procedure: (§3) Inhibition of tumor growth (TGI) is based on mean tumor volume of groups of 7 or 8 mice relative to untreated controls. Tumors were measured between Days 12 and 19 (except Day 24 for Colon 51 and Day 31 for Colon 38).
(§4) Tumors used in these studies are maintained by serial transplantation in syngeneic strains of mice C57BL/6 for Lewis lung carcinoma, B16 melanoma and its F10 subline, M5076 sarcoma and colon adenocarcinoma 38; BALB/c for colon carcinoma 26, ADJ-PC6 plasmacytoma Madison lung carcinoma and colon adenocarcinoma 51, C3H for mammary adenocarcinoma 16/c. With the exception of the M5076 sarcoma, which is maintained as a i.p ascites cell suspension, all of the tumors were serially transplanted as s.c. solid tumors.
(§5) For therapeutic trials, tumors were aseptically removed from donor mice and prepared for implantation s.c. into test animals. The test animals for Lewis lung carcinoma, B16 melanoma and its F10 subline, M5076 sarcoma and colon adenocarcinoma 38 are syngeneic female F1 hybrid B6D2F mice (C57B1/6×DBA/2). ADJ-PC6 plasmacytoma and colon carcinoma 26 are evaluated in female BALB/c mice. Madison lung carcinoma and colon adenocarcinoma 51 are evaluated in syngeneic female F1 hybrid CD2F1 mice (BALB/c×DBA/2). Mammary adenocarcinoma 16/c is evaluated in female C3H mice. The inoculum varies with the tumor. Colon adenocarcinomas 38 is implanted as 2 mm fragments by trochar. M5076 sarcoma and ADJ-PC6 plasmacytoma are implanted as cell suspensions at 5×10^6 and 2×10^6 cells per mouse, respectively. Colon carcinoma 26, colon adenocarcinoma 51, Lewis lung carcinoma, Madison lung carcinoma and B16 melanoma and its F10 subline are implanted as tumor breis prepared as described above in a volume of 0.5 ml. The brei concentration was 10 percent (w:v) except for colon carcinoma 26 for which the brei concentration was 5 percent (w:v). After tumor inoculation, mice are randomized to treatment groups of 7 or 8 mice. In each experiment, there are three groups of untreated control mice.
(§6) Drugs are dissolved or suspended in appropriate aqueous vehicles and given by a variety of routes of administration and treatment schedules over a range of dosage levels. Animals are housed in shoebox cages and are monitored daily for mortality. […] Time for tumor measurement is dependent on the different rates of tumor growth of the different tumors: the most rapidly growing tumors such as the Lewis and Madison lung tumors, B16 melanoma and its F10 subline were measured between Days 12 and 16. The slower growing tumors were measured at later time points--17 days for M5076 sarcoma, 16 or 19 days for mammary adenocarcinoma 16/c, 19 days for ADJ-PC6 plasmacytoma and colon carcinoma 26, 24 days for colon adenocarcinoma 51, and 31 days for colon adenocarcinoma 38.

[3] = tested on: sc ADJ-PC6 plasmacytoma; experiment: sc-implanted ADJ-PC6 plasmacytoma in mice; type: in vivo, mouse; conditions: for Mice without Palpable Tumors: sc ADJ-PC6, B/ip
Procedure: as §3, §4, §5, §6

[4] = in vivo; conditions: mouse, ip
Procedure: Increase in lifespan (ILS) is based on median survival time of groups of 6 mice. Net tumor cell kill (NCK) is calculated from median survival time by standard methods, since survival time is a linear function of the log tumor cell burden.
Animals were implanted ip with 10^6 cells. Increase in lifespan (ILS) is based on median survival time of groups of 6 mice relative to untreated controls. Long-term survivors were tumor-free on Day 45.
as §1, §2

[5] = tested on: sc B16 melanoma; conditions: for ILS: mouse, in vivo; for Tumor growth inhibition (TGI) / Mice without Palpable Tumors: sc B16; for Tumor growth inhibition (TGI): C/ip (every 3 hours x4 on Days 1, 5 and 9); for Mice without Palpable Tumors: C/ip
Source text: Inhibition of tumor growth (TGI) is based on mean tumor volume of groups of 7 or 8 mice relative to untreated controls.
as §4, §5, §6
For highly metastatic tumors including: Lewis and Madison lung tumors, colon carcinoma 26 and B16 melanoma and its F10 subline, tumor-bearing mice are monitored for survival time as well. For the less mestastatic tumor models, tumor-bearing mice are killed following tumor measurement. In this setting, an increase in lifespan of ≥30 percent is considered to be evidence of drug activity.

[6] = ip M5076, single dose on Days 1, 5, 9 and 13 ip, additional study
[7] = ip M5076, single dose on Days 1, 5 and 9 ip, additional study

CC[C@@]1(O)C(=O)OCc2c1cc1n(c2=O)Cc2cc3c(CN(C)C)c(O)ccc3nc2-1 [Compound No. 1S, (20 S) 9-Dimethylaminomethyl-10-hydroxycamptothecin Acetate Salt]
Increase in lifespan (ILS) ([1]; ip M5076, C/ip (every 3 hours x4 on Days 1, 5 and 9), 0.62 mg/kg/injection): 70% | Increase in lifespan (ILS) ([1]; ip M5076, C/ip (every 3 hours x4 on Days 1, 5 and 9), 1.2 mg/kg/injection): 75% | Increase in lifespan (ILS) ([1]; ip M5076, C/ip (every 3 hours x4 on Days 1, 5 and 9), 5 mg/kg/injection): toxic | Increase in lifespan (ILS) ([1]; ip M5076, C/ip (every 3 hours x4 on Days 1, 5 and 9), 10 mg/kg/injection): toxic | Increase in lifespan (ILS) ([1]; ip M5076, C/sc (every 3 hours x4 on Days 1, 5 and 9), 0.62 mg/kg/injection): 36% | Increase in lifespan (ILS) ([1]; ip M5076, C/sc (every 3 hours x4 on Days 1, 5 and 9), 1.2 mg/kg/injection): 70% | Increase in lifespan (ILS) ([1]; ip M5076, C/sc (every 3 hours x4 on Days 1, 5 and 9), 5 mg/kg/injection): toxic | Increase in lifespan (ILS) ([1]; ip M5076, C/sc (every 3 hours x4 on Days 1, 5 and 9), 10 mg/kg/injection): toxic | ILS [1, 6]: 71% | cures [1, 6]: 1/8 | ILS [1, 7]: 75% | cures [1, 7]: 1/8 | ILS ([1]; mouse, in vivo): 57 | Long-Term Survivors ([1]; mouse, in vivo, 1.2 mg/kg): 1/8 | Long-Term Survivors ([1]; mouse, in vivo, ip, 0.62 mg/kg): 1/8 | Long-Term Survivors ([1]; mouse, in vivo, ip, 1.2 mg/kg): 1/8 | inhibition at two dose levels ([2]; mouse, in vivo): > 90 | Mice without Palpable Tumors ([2]; mouse, in vivo, 0.78 mg/kg): 2/7 | Mice without Palpable Tumors ([2]; mouse, in vivo, 1.3 mg/kg): 4/7 | Mice without Palpable Tumors ([2]; mouse, in vivo, 2.2 mg/kg): 4/7 | Mice without Palpable Tumors ([2]; mouse, in vivo, 3.6 mg/kg): 6/7 | Mice without Palpable Tumors ([2]; mouse, in vivo, 6 mg/kg): 5/7 | Increase in Lifespan (ILS) or Inhibition of Tumor Growth (TGI) ([2]; mouse, in vivo, sc): 96 % TGI | Tumor growth inhibition (TGI) ([2]; sc Colon 38, G/ip (Days 3, 10, 17 and 24), 3.1 mg/kg/injection): 0% | Tumor growth inhibition (TGI) ([2]; sc Colon 38, G/ip (Days 3, 10, 17 and 24), 5.2 mg/kg/injection): 0% | Tumor growth inhibition (TGI) ([2]; sc Colon 38, G/ip (Days 3, 10, 17 and 24), 8.6 mg/kg/injection): 55% | Tumor growth inhibition (TGI) ([2]; sc Colon 38, G/ip (Days 3, 10, 17 and 24), 14 mg/kg/injection): 78% | Tumor growth inhibition (TGI) ([2]; sc Colon 38, G/ip (Days 3, 10, 17 and 24), 24 mg/kg/injection): 89% | Mice without Palpable Tumors ([2]; sc Colon 38, G/ip, 3.1 mg/kg/injection): 2/7 | Mice without Palpable Tumors ([2]; sc Colon 38, G/ip, 5.2 mg/kg/injection): 1/7 | Mice without Palpable Tumors ([2]; sc Colon 38, G/ip, 8.6 mg/kg/injection): 3/7 | Mice without Palpable Tumors ([2]; sc Colon 38, G/ip, 14 mg/kg/injection): 5/8 | Mice without Palpable Tumors ([2]; sc Colon 38, G/ip, 24 mg/kg/injection): 4/7 | Tumor growth inhibition (TGI) ([2]; sc Colon 38, H/ip (every 3 hours x4 on Days 3, 10, 14 and 24), 0.78 mg/kg/injection): 53% | Tumor growth inhibition (TGI) ([2]; sc Colon 38, H/ip (every 3 hours x4 on Days 3, 10, 14 and 24), 1.3 mg/kg/injection): 68% | Tumor growth inhibition (TGI) ([2]; sc Colon 38, H/ip (every 3 hours x4 on Days 3, 10, 14 and 24), 2.2 mg/kg/injection): 74% | Tumor growth inhibition (TGI) ([2]; sc Colon 38, H/ip (every 3 hours x4 on Days 3, 10, 14 and 24), 3.6 mg/kg/injection): 93% | Tumor growth inhibition (TGI) ([2]; sc Colon 38, H/ip (every 3 hours x4 on Days 3, 10, 14 and 24), 6 mg/kg/injection): 96% | inhibition of tumor growth at four dose levels at or below the maximally tolerated dose ([3]; mouse, in vivo): > 90 | long term tumor-free survivors at each of the top three dose levels ([3]; mouse, in vivo): 1 of 8 | Tumor growth inhibition (TGI) ([3]; mouse, in vivo, 3.2 mg/kg): 93% | Tumor growth inhibition (TGI) ([3]; mouse, in vivo, 5.4 mg/kg): 92% | long-term, tumorfree survivors ([3]; mouse, in vivo, 5.4 mg/kg): 1/8 | Tumor growth inhibition (TGI) ([3]; mouse, in vivo, 9 mg/kg): 100% | long-term, tumorfree survivors ([3]; mouse, in vivo, 9 mg/kg): 1/8 | long-term, tumorfree survivors ([3]; mouse, in vivo, 15 mg/kg): 1/8 | Tumor growth inhibition (TGI) ([3]; mouse, in vivo, 25 mg/kg): toxic | Increase in Lifespan (ILS) or Inhibition of Tumor Growth (TGI) ([3]; mouse, in vivo, sc): 100 % TGI | Mice without Palpable Tumors ([3]; 3.2 mg/kg/injection): 3/8 | Mice without Palpable Tumors ([3]; 5.4 mg/kg/injection): 4/8 | Mice without Palpable Tumors ([3]; 9 mg/kg/injection): 8/8 | Mice without Palpable Tumors ([3]; 15 mg/kg/injection): 7/7 | MTD [4]: 15 mg/kg | ILS [5]: 53 | ILS ([5]; 24 mg/kg): 39 | ILS ([5]; sc): 52 | Tumor growth inhibition (TGI) ([5]; 0.78 mg/kg/injection): 46% | Tumor growth inhibition (TGI) ([5]; 1.3 mg/kg/injection): 64% | Tumor growth inhibition (TGI) ([5]; 2.2 mg/kg/injection): 92% | Tumor growth inhibition (TGI) ([5]; 3.6 mg/kg/injection): 100% | Tumor growth inhibition (TGI) ([5]; 6 mg/kg/injection): 100% | Mice without Palpable Tumors ([5]; 0.78 mg/kg/injection): 1/8 | Mice without Palpable Tumors ([5]; 1.3 mg/kg/injection): 1/8 | Mice without Palpable Tumors ([5]; 2.2 mg/kg/injection): 2/8 | Mice without Palpable Tumors ([5]; 3.6 mg/kg/injection): 7/7 | Mice without Palpable Tumors ([5]; 6 mg/kg/injection): 7/7
